Data set [1] has as its system Boophilus Microplus Resistent/SP-Resistent Parkhurst Strain. Briefly: Test with Boophilus Microplus Resistent/SP-Resistent Parkhurst Strain. It is filed as in vivo. The note with it: 200 μg/animal; injected into the abdomen; adult females which have sucked themselves full. As for the experimental part:
Test with Boophilus Microplus Resistent/SP-Resistent Parkhurst Strain
Adult females which have sucked themselves full […]
The test is carried out in 5 replications. I μl of the solutions is injected into the abdomen, and the animals are transferred into dishes and kept in an air-conditioned room. The activity is determined via the inhibition of oviposition. 100% means that no tick has deposited eggs.

Data set [2] concerns mustard beetle larvae (Phaedon cochleariae). The experiment in a line: Phaedon Larvae Test. It is filed as in vivo. As to conditions: 168 h, 0.1% active compound, after 7 days, dipped cabbage leaves, read-out: kill. As for the experimental part:
(§1) Solvent: 7 parts by weight of dimethylformamide
(§2) Emulsifier: 1 part by weight of alkylaryl polyglycol ether
(§3) To produce a suitable preparation of active compound, 1 part by weight of active compound is mixed with the stated amount of solvent and the stated amount of emulsifier, and the concentrate is diluted with water to the desired concentration.
Cabbage leaves (Brassica oleracea) are treated by being dipped into the active compound preparation of the desired concentration and are populated with mustard beetle larvae (Phaedon cochleariae) while the leaves are still moist.
After the desired period of time, the kill in % is determined. 100% means that all the beetle larvae have been killed, 0% means that none of the beetle larvae have been killed.

For data set [3], the system named is caterpillars of the owlet moth Spodoptera frugiperda. The experiment in a line: Spodoptera Test. It counts as in vivo. The note with it: 168 h, 0.1% active compound, after 7 days, dipped cabbage leaves, read-out: kill. As to the method:
as §1, §2, §3
Cabbage leaves (Brassica oleracea) are treated by being dipped into the active compound preparation of the desired concentration and are populated with caterpillars of the owlet moth Spodoptera frugiperda) while the leaves are still moist.
(§4) After the desired period of time, the kill in % is determined. 100% means that all the caterpillars have been killed, 0% means that none of the caterpillars have been killed.

The subject of data set [4] is black bean aphid (Aphis fabae). Briefly: Myzus Test (Duration of Activity after Spraying). It is filed as in vivo. As to conditions: 0.1% active compound, dipped bean shoots, time not stated, read-out: kill. As to the method:
Myzus Test (Duration of Activity after Spraying)
as §1, §2, §3
Bean shoots (Vicia faba) which are heavily infested by the black bean aphid (Aphis fabae) are treated by being dipped into the active compound preparation of the desired concentration.
After the desired period of time, the kill in % is determined. 100% means that all aphids have been killed, 0% means that none of the aphids have been killed.

Data set [5] concerns caterpillars of the diamond back moth (Plutella xylostella). The experiment in a line: Plutella Test. It counts as in vivo. As to conditions: 168 h, 0.1% active compound, after 7 days, dipped cabbage leaves, read-out: kill. As for the experimental part:
as §1, §2, §3
Cabbage leaves (Brassica oleracea) are treated by being dipped into the active compound preparation of the desired concentration and are populated with caterpillars of the diamond back moth (Plutella xylostella) while the leaves are still moist.
as §4

For data set [6], the system named is larvae of the green rice leaf hopper (Nephotettix cincticeps). The experiment in a line: Nephotettix Test. The note with it: 144 h, read-out: kill. It counts as in vivo. As for the experimental part: as §1, §2, §3
Rice seedlings (Oryzae sativa) are treated by being dipped into the active compound preparation of the desired concentration and are populated with larvae of the green rice leaf hopper (Nephotettix cincticeps) while the seedlings are still moist.
After the desired period of time, the kill in % is determined. 100% means that all the leaf hoppers have been killed; 0% means that none of the leaf hoppers have been killed.

The test system of data set [7] is all larval stages of Lucilia cuprina (OP resistent). Briefly: Test with Fly Larvae/Development-Inhibitory Action. As to conditions: 1000 ppm active compound, on horse meat, larvicidal effect after 48 h. It counts as in vivo. As to the method: Test with Fly Larvae/Development-Inhibitory Action
all larval stages of Lucilia cuprina (OP resistent)
[pupae and adults (without contact with the active
Solvent: 35 parts by weight of ethylene glycol monomethyl ether
35 parts by weight of nonylphenol polyglycol ether
To produce a suitable preparation, 3 parts by weight of the active compound are mixed with 7 parts by weight of the abovementioned solvent-emulsifier mixture, and the resulting emulsion concentrate is diluted with water to the concentration desired in each case.
For each concentration, 30 to 50 larvae are introduced into a test tube which contains horse meat (1 cm^3). 500 μl of the dilution to be tested are pipetted onto this horse meat. The test tubes are placed in plastic beakers whose bottom is covered with sea sand, and kept in an air-conditioned room (26° C.±1.5° C., 70%±10% relative humidity). The activity is examined (larvicidal action) after 24 hours and 48 hours. After emergence of the larvae (about 72 h), the test tubes are removed and perforated plastic lids are fitted onto the beakers. After 1.5 times the development time (hatching of control flies), the hatched flies and the pupae/cocoons are counted.
The activity criterion is the incidence of death in the treated larvae after 48 h (larvicidal effect), or the inhibition of hatching of adults from pupae or the inhibition of pupae formation. The criterion for the in vitro activity of a substance is the inhibition of the development of the […], or a development standstill before the adult stage. 100% larvicidal action means that all the larvae have been killed after 48 hours. 100% development-inhibitory action means that no adult flies have hatched.

A short description of data set [8]: log p: n-octanol/water partition coefficient determined by reverse phase HPLC analysis using H2O/CH3CN. It is filed as physicochemical. The text has this:
*log p: logarithm to base ten of the noctanol/water partition coefficient
determined by reverse phase HPLC analysis using H2 O/CH3 CN.

For the next data set, the system named is Meloidogyne incognita. The experiment in a line: Critical Concentration Test/Nematodes. It is filed as in vivo. As to conditions: 20 ppm active compound in soil; after four weeks; lettuce roots (root galls). As for the experimental part: Critical Concentration Test/Nematodes
Solvent: 4 parts by weight of acetone
as §2
To produce a suitable preparation of active compound, 1 part by weight of active compound is mixed with the stated amount of solvent, the stated amount of emulsifier is added and the concentrate is diluted with water to the desired concentration.
The active compound preparation is intimately mixed with soil which is heavily infested with the test nematodes. The active compound concentration in the preparation is immaterial, only the amount of active compound per unit volume of soil, which is given in ppm (=mg/l), matters. The treated soil is transferred into pots, lettuce seeds are sown, and the pots are kept at a greenhouse temperature of 25° C.
After four weeks, the lettuce roots are checked for infestation with nematodes (root galls) and the efficacy of the active compound in % is determined. The efficacy is 100% when infestation is avoided completely and 0% when the infestation level is just as high as in the control plants in untreated, but equally infested, soil.

Like-named read-outs stand apart in the source and are kept apart here.

As to `Cc1ccc(-c2noc(CC(F)=C(F)F)n2)cc1` [Example 1, 3-(4-methylphenyl)-5-(2,3,3-trifluoroprop-2-enyl)-1,2,4-oxadiazole], in [1], the “activity (inhibition of oviposition)” value amounted to 100%. The mortality at 0.1 % strength in data set [2] was 100%; in data set [3], no less than 85%; in [4], 90%; in [5], no less than 90%; in [6] it was 100%.

As for `FC(F)=C(F)Cc1nnc(-c2ccc(Cl)cc2)o1` [Example 2, 2-(4-chlorophenyl)-5-(2,3,3-trifluoroprop-2-enyl)-1,3-4-oxadiazole], the mortality at 0.1 % strength is 100% in [2], 80% in [4], no less than 90% in [5] and 100% in [6].

The term inhibition denotes the change of the read-out against control, counted positive when it falls. A lower inhibition goes with a response near the control. A word on the chromatographic logP: it is lipophilicity estimated from chromatographic retention. A higher chromatographic logP goes with a more lipophilic compound. With `FC(F)=C(F)Cc1nc(-c2c(Cl)cccc2Cl)no1` [Example 3], the mortality at 0.1 % strength in [3] is no less than 85%; in data set [5], no less than 90%; in [6] (0.1% active compound, after 6 days, dipped rice seedlings) it was 100%. The inhibition at 1000 ppm in [7] was 100%. The chromatographic logP in [8] (pH 2) amounted to 3.44.

With `FC(F)=C(F)Cc1nc(CCl)no1` [Example 4], in data set [8] (pH not stated), the chromatographic logP is 2.08.

Compound `FC(F)=C(F)Cc1nc(-c2ccccc2Cl)no1` [Example 5] returned an inhibition at 1000 ppm in [7] of 100%. For the same compound, in data set [5], the mortality at 0.1 % strength is no less than 90%. This compound registered a chromatographic logP in data set [8] (pH 2) of 3.3.

`FC(F)=C(F)Cc1nc(-c2cc(Cl)cc(Cl)c2)no1` [Example 6] displayed a chromatographic logP in data set [8] (pH 2) of 4.72.

On to `FC(F)=C(F)Cc1nc(-c2ccccc2)no1` [Example 7], for which the values for the mortality at 0.1 % strength in data set [2], in [3] and in data set [5] were 100%, no less than 85% and no less than 90%, respectively. The compound further showed an inhibition at 1000 ppm in data set [7] of 100%. The same compound came in with a chromatographic logP in data set [8] (pH 2) of 3.2.

Consider `COc1ccc(-c2nnc(CC(F)=C(F)F)o2)cc1` [Example 8], for which the mortality at 0.1 % strength in [5] is no less than 90%. The same compound registered a chromatographic logP in data set [8] (pH 7.5) of 2.46.

As for `FC(F)=C(F)Cc1nnc(-c2ccco2)o1` [Example 9], the chromatographic logP in data set [8] (pH 7.5) came to 1.89.

As for `FC(F)=C(F)Cc1nnc(-c2cccs2)o1` [Example 10], the efficacy in the data set with Meloidogyne incognita was 100%. In data set [8] (pH 7.5), the chromatographic logP worked out at 2.19.

(Values after patent publication US6001829A, “Fluoropropenyl oxadiazoles and the use thereof as pest control agents” (Bayer Aktiengesellschaft, priority 1995, dated 1999).)
